From patent US20090239841A1, “Diaryl Ureas as CB1 Antagonists” (priority 2004, published 2009)

The molecules below were run against T1, hCB1 (Homo sapiens, UniProt P21554) (assay: Agonist-induced GTP binding (GTPγ35S) assay at CB1, Example 8). Details: IC50 at CB1, determined as described in Example 8; read-out: IC50.
T1 construct: made in house; host or cells: Sf9 insect cells (baculovirus), P2 membranes
Format: biochemical
Procedure, shortened: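 Antagonism read as inhibition of 1 nM CP55,940-stimulated GTPγ35S ([…]) binding, compounds at 10^−10 to 10^−5 M. Baculovirus-infected Sf9 membranes bearing hCB1 plus G-protein subunits, 60 min room-temperature incubation with 5 μM GDP. Filtration and scintillation counting; data as percent over basal.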

T1 sequence (P21554 whole entry): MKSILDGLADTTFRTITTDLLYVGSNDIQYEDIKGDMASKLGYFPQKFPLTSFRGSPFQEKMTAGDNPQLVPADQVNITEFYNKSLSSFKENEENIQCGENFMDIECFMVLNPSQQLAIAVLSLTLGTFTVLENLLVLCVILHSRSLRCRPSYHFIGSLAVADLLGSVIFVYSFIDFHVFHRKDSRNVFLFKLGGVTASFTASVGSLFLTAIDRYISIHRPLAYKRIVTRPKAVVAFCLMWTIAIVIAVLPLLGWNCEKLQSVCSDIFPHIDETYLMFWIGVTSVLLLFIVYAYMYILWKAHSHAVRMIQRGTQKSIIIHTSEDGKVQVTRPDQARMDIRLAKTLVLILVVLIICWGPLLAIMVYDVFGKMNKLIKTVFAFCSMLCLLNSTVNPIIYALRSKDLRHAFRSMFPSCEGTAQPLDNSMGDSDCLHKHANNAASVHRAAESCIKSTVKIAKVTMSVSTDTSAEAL

| SMILES | IC50 [nM] |
| --- | --- |
| CCOC(=O)c1ccc(NC(=O)Nc2ccc(OCC#N)cc2)cc1 [Compound 719, ethyl 4-[({[4-(cyanomethoxy)phenyl]amino}carbonyl)amino]benzoate] | < 2000 |
| CCC(=O)c1ccc(NC(=O)Nc2cccc(C(=O)OC)c2)cc1 [Compound 720, methyl 3-({[(4-propionylphenyl)amino]carbonyl}amino)benzoate] | < 2000 |
| CCOC(=O)c1cccc(NC(=O)Nc2ccc(C(=O)CC)cc2)c1 [Compound 721, ethyl 3-({[(4-propionylphenyl)amino]carbonyl}amino)benzoate] | < 2000 |
| CCOC(=O)c1ccc(NC(=O)Nc2cccc(C(=O)OCC)c2)cc1 [Compound 722, ethyl 3-[({[4-(ethoxycarbonyl)phenyl]amino}carbonyl)amino] benzoate] | < 2000 |
| CCOC(=O)c1cccc(NC(=O)Nc2ccc(S(C)(=O)=O)cc2)c1 [Compound 723, ethyl 3-[({[4-(methylsulfonyl)phenyl]amino}carbonyl)amino] benzoate] | < 2000 |
| COC(=O)c1ccc(NC(=O)Nc2ccc(C(=O)OC(C)C)cc2)cc1 [Compound 724, isopropyl methyl 4,4′-(carbonyldiimino)dibenzoate] | < 2000 |
| CCOC(=O)c1cccc(NC(=O)Nc2ccc(C(=O)OC(C)C)cc2)c1 [Compound 725, ethyl 3-[({[4-(isopropoxycarbonyl)phenyl]amino}carbonyl)amino] benzoate] | < 2000 |
| Cc1ccc(NC(=O)Nc2ccc(CC#N)cc2)cc1C [Compound 726, 1-[4-(cyanomethyl)phenyl]-3-(3,4-dimethylphenyl)urea] | < 2000 |
| Cc1ccc(NC(=O)Nc2ccc(CC#N)cc2)cc1F [Compound 727, 1-[4-(cyanomethyl)phenyl]-3-(3-fluoro-4-methylphenyl)urea] | < 2000 |
| N#CCc1ccc(NC(=O)Nc2ccc(F)c(F)c2)cc1 [Compound 728, 1-[4-(cyanomethyl)phenyl]-3-(3,4-difluorophenyl)urea] | < 2000 |
| Cc1ccc(NC(=O)Nc2ccc(OCC#N)cc2)cc1C [Compound 729, 1-[4-(cyanomethoxy)phenyl]-3-(3,4-dimethylphenyl)urea] | < 2000 |
| Cc1ccc(NC(=O)Nc2ccc(OCC#N)cc2)cc1F [Compound 730, 1-[4-(cyanomethoxy)phenyl]-3-(3-fluoro-4-methylphenyl)urea] | < 2000 |
| Cc1cc(NC(=O)Nc2ccc(OCC#N)cc2)ccc1F [Compound 731, 1-[4-(cyanomethoxy)phenyl]-3-(4-fluoro-3-methylphenyl)urea] | < 2000 |
| N#CCOc1ccc(NC(=O)Nc2ccc(F)c(F)c2)cc1 [Compound 732, 1-[4-(cyanomethoxy)phenyl]-3-(3,4-difluorophenyl)urea] | < 2000 |
| CCC(=O)c1ccc(NC(=O)Nc2ccc(C)c(C)c2)cc1 [Compound 733, 1-(3,4-dimethylphenyl)-3-(4-propionylphenyl)urea] | < 2000 |
| CCC(=O)c1ccc(NC(=O)Nc2ccc(C)c(F)c2)cc1 [Compound 734, 1-(3-fluoro-4-methylphenyl)-3-(4-propionylphenyl)urea] | < 2000 |
| CCC(=O)c1ccc(NC(=O)Nc2ccc(F)c(C)c2)cc1 [Compound 735, 1-(4-fluoro-3-methylphenyl)-3-(4-propionylphenyl)urea] | < 2000 |
| CCOC(=O)c1ccc(NC(=O)Nc2ccc(C)c(F)c2)cc1 [Compound 737, ethyl 4-({[(3-fluoro-4-methylphenyl)amino]carbonyl}amino)benzoate] | < 2000 |
| CCOC(=O)c1ccc(NC(=O)Nc2ccc(F)c(C)c2)cc1 [Compound 738, ethyl 4-({[(4-fluoro-3-methylphenyl)amino]carbonyl}amino)benzoate] | < 2000 |
| CCOC(=O)c1ccc(NC(=O)Nc2ccc(F)c(F)c2)cc1 [Compound 739, ethyl 4-({[(3,4-difluorophenyl)amino]carbonyl}amino)benzoate] | < 2000 |
| Cc1ccc(NC(=O)Nc2ccc(C(=O)OC(C)C)cc2)cc1F [Compound 740, isopropyl 4-({[(3-fluoro-4-methylphenyl)amino]carbonyl}amino)benzoate] | < 2000 |
| N#CCOc1ccc(NC(=O)Nc2cc(F)cc(F)c2)cc1 [Compound 743, 1-[4-(cyanomethoxy)phenyl]-3-(3,5-difluorophenyl)urea] | < 2000 |
| CCC(=O)c1ccc(NC(=O)Nc2cc(F)cc(F)c2)cc1 [Compound 744, 1-(3,5-difluorophenyl)-3-(4-propionylphenyl)urea] | < 2000 |
| COC(=O)c1ccc(NC(=O)Nc2cccc(O)c2)cc1 [Compound 745, methyl 4-({[(3-hydroxyphenyl)amino]carbonyl}amino)benzoate] | < 2000 |
| CCOC(=O)c1ccc(NC(=O)Nc2cccc(O)c2)cc1 [Compound 746, ethyl 4-({[(3-hydroxyphenyl)amino]carbonyl}amino)benzoate] | < 2000 |

| SMILES | IC50 [nM] |
| --- | --- |
| COC(=O)c1ccc(NC(=O)Nc2ccc(O)cc2)cc1 [Compound 747, methyl 4-({[(4-hydroxyphenyl)amino]carbonyl}amino)benzoate] | < 2000 |
| CCOC(=O)c1ccc(NC(=O)Nc2ccc(O)cc2)cc1 [Compound 748, ethyl 4-({[(4-hydroxyphenyl)amino]carbonyl}amino)benzoate] | < 2000 |
| CCOC(=O)c1ccc(NC(=O)Nc2ccc(CO)cc2)cc1 [Compound 749, ethyl 4-[({[4-(hydroxymethyl)phenyl]amino}carbonyl)amino] benzoate] | < 2000 |
| CCOC(=O)c1ccc(NC(=O)Nc2ccc(C(C)O)cc2)cc1 (centres unmarked) [Compound 750, ethyl 4-[({[4-(1-hydroxyethyl)phenyl]amino}carbonyl)amino] benzoate] | < 2000 |
| CCOC(=O)c1ccc(NC(=O)Nc2cccc(CCO)c2)cc1 [Compound 751, ethyl 4-[({[3-(2-hydroxyethyl)phenyl]amino}carbonyl)amino] benzoate] | < 2000 |
| COC(=O)c1ccc(NC(=O)Nc2ccc(CCO)cc2)cc1 [Compound 752, methyl 4-[({[4-(2-hydroxyethyl)phenyl]amino}carbonyl)amino] benzoate] | < 2000 |
| CCOC(=O)c1cccc(NC(=O)Nc2ccc(CCO)cc2)c1 [Compound 753, ethyl 3-[({[4-(2-hydroxyethyl)phenyl]amino}carbonyl)amino] benzoate] | < 2000 |
| CCOC(=O)c1ccc(NC(=O)Nc2ccc(CCO)cc2)cc1 [Compound 754, ethyl 4-[({[4-(2-hydroxyethyl)phenyl]amino}carbonyl)amino] benzoate] | < 2000 |
| COC(=O)c1ccc(NC(=O)Nc2cccc(OCCO)c2)cc1 [Compound 755, methyl 4-[({[3-(2-hydroxyethoxy)phenyl]amino}carbonyl)amino] benzoate] | < 2000 |
| CCOC(=O)c1cccc(NC(=O)Nc2cccc(OCCO)c2)c1 [Compound 756, ethyl 3-[({[3-(2-hydroxyethoxy)phenyl]amino}carbonyl)amino] benzoate] | < 2000 |
| CCOC(=O)c1ccc(NC(=O)Nc2cccc(OCCO)c2)cc1 [Compound 757, ethyl 4-[({[3-(2-hydroxyethoxy)phenyl]amino}carbonyl)amino] benzoate] | < 2000 |
| CCOC(=O)c1ccc(NC(=O)Nc2ccc(OCC(C)O)cc2)cc1 (centres unmarked) [Compound 758, ethyl 4-[({[4-(2-hydroxypropoxy)phenyl]amino}carbonyl)amino] benzoate] | < 2000 |
| Cc1ccc(NC(=O)Nc2cccc(O)c2)cc1F [Compound 759, 1-(3-fluoro-4-methylphenyl)-3-(3-hydroxyphenyl)urea] | < 2000 |
| Cc1ccc(NC(=O)Nc2ccc(O)cc2)cc1F [Compound 760, 1-(3-fluoro-4-methylphenyl)-3-(4-hydroxyphenyl)urea] | < 2000 |
| Cc1ccc(NC(=O)Nc2ccc(CCO)cc2)cc1C [Compound 761, 1-(3,4-dimethylphenyl)-3-[4-(2-hydroxyethyl)phenyl]urea] | < 2000 |
| Cc1ccc(NC(=O)Nc2cccc(OCCO)c2)cc1F [Compound 762, 1-(3-fluoro-4-methylphenyl)-3-[3-(2-hydroxyethoxy)phenyl]urea] | < 2000 |
| Cc1ccc(NC(=O)Nc2ccc(OCC(C)O)cc2)cc1F (centres unmarked) [Compound 763, 1-(3-fluoro-4-methylphenyl)-3-[4-(2-hydroxypropoxy)phenyl]urea] | < 2000 |
| CCOC(=O)c1ccc(NC(=O)Nc2ccccc2Br)cc1 [Compound 764, ethyl 4-({[(2-bromophenyl)amino]carbonyl}amino)benzoate] | < 2000 |
| COC(=O)c1cccc(NC(=O)Nc2ccc(C)c(F)c2)c1 [Compound 765, methyl 3-({[(3-fluoro-4-methylphenyl)amino]carbonyl}amino)benzoate] | < 2000 |
| CCOC(=O)c1cccc(NC(=O)Nc2ccc(C)c(F)c2)c1 [Compound 766, ethyl 3-({[(3-fluoro-4-methylphenyl)amino]carbonyl}amino)benzoate] | < 2000 |
| CCOC(=O)c1cccc(NC(=O)Nc2ccc(F)c(C)c2)c1 [Compound 767, ethyl 3-({[(4-fluoro-3-methylphenyl)amino]carbonyl}amino)benzoate] | < 2000 |
| CCOC(=O)c1cccc(NC(=O)Nc2ccc(F)c(F)c2)c1 [Compound 768, ethyl 3-({[(3,4-difluorophenyl)amino]carbonyl}amino)benzoate] | < 2000 |
| COC(=O)c1cccc(NC(=O)Nc2ccc(C)c(Cl)c2)c1 [Compound 769, methyl 3-({[(3-chloro-4-methylphenyl)amino]carbonyl}amino)benzoate] | < 2000 |
| CCOC(=O)c1cccc(NC(=O)Nc2ccc(C)c(Cl)c2)c1 [Compound 770, ethyl 3-({[(3-chloro-4-methylphenyl)amino]carbonyl}amino)benzoate] | < 2000 |
| CCOC(=O)c1cccc(NC(=O)Nc2ccc(Cl)c(C)c2)c1 [Compound 771, ethyl 3-({[(4-chloro-3-methylphenyl)amino]carbonyl}amino)benzoate] | < 2000 |
